# Laboratory results taken from PubChem BioAssay (NCI).
#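 48-hour exposure; five concentrations; linearly interpolated endpoints. TGI marks complete inhibition of growth.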
# Key:
# Test in all cases: DTP human tumour cell line panel, 48 h
# 786-0 renal = system: 786-0 renal
# A498 renal = system: A498 renal
# A549 NSCLC = system: A549 NSCLC
# ACHN renal = system: ACHN renal
# BT-549 breast = system: BT-549 breast
# CAKI-1 renal = system: CAKI-1 renal
# CCRF-CEM leukemia = system: CCRF-CEM leukemia
# COLO 205 colon = system: COLO 205 colon
# DU-145 prostate = system: DU-145 prostate
# HCC-2998 colon = system: HCC-2998 colon
# HCT-116 colon = system: HCT-116 colon
# HCT-15 colon = system: HCT-15 colon
# HL-60(TB) leukemia = system: HL-60(TB) leukemia
# HOP-62 NSCLC = system: HOP-62 NSCLC
# HOP-92 NSCLC = system: HOP-92 NSCLC
# HS 578T breast = system: HS 578T breast
# HT29 colon = system: HT29 colon
# IGROV1 ovarian = system: IGROV1 ovarian
# K-562 leukemia = system: K-562 leukemia
# KM12 colon = system: KM12 colon
# LOX IMVI melanoma = system: LOX IMVI melanoma
# M14 melanoma = system: M14 melanoma
# MALME-3M melanoma = system: MALME-3M melanoma
# MCF7 breast = system: MCF7 breast
# MDA-MB-231 breast = system: MDA-MB-231 breast
# MDA-MB-435 = system: MDA-MB-435
# MDA-N = system: MDA-N
# MOLT-4 leukemia = system: MOLT-4 leukemia
# NCI-H23 lung = system: NCI-H23 lung
# NCI-H460 lung = system: NCI-H460 lung
# NCI/ADR-RES ovarian = system: NCI/ADR-RES ovarian
# OVCAR-3 ovarian = system: OVCAR-3 ovarian
# OVCAR-4 ovarian = system: OVCAR-4 ovarian
# OVCAR-5 ovarian = system: OVCAR-5 ovarian
# PC-3 prostate = system: PC-3 prostate
# RPMI-8226 leukemia = system: RPMI-8226 leukemia
# RXF 393 renal = system: RXF 393 renal
# SF-268 CNS = system: SF-268 CNS
# SF-295 CNS = system: SF-295 CNS
# SF-539 CNS = system: SF-539 CNS
# SK-MEL-2 melanoma = system: SK-MEL-2 melanoma
# SK-MEL-28 melanoma = system: SK-MEL-28 melanoma
# SK-OV-3 ovarian = system: SK-OV-3 ovarian
# SN12C renal = system: SN12C renal
# SNB-19 CNS = system: SNB-19 CNS
# SNB-75 CNS = system: SNB-75 CNS
# SR leukemia = system: SR leukemia
# SW-620 colon = system: SW-620 colon
# T-47D breast = system: T-47D breast
# TK-10 renal = system: TK-10 renal
# U251 CNS = system: U251 CNS
# UACC-257 melanoma = system: UACC-257 melanoma
# UACC-62 melanoma = system: UACC-62 melanoma
# UO-31 renal = system: UO-31 renal
# EKVX NSCLC = system: EKVX NSCLC
# NCI-H226 lung = system: NCI-H226 lung
# OVCAR-8 ovarian = system: OVCAR-8 ovarian
# SK-MEL-5 melanoma = system: SK-MEL-5 melanoma
smiles,measurement,setting,value
OCC1OC(NC(=S)NCSCCC(F)(F)C(F)(F)C(F)(F)C(F)(F)C(F)(F)C(F)(F)F)C(O)C(O)C1O (stereo not given),TGI,786-0 renal,> 100 µM
same,TGI,A498 renal,12.6 µM
same,TGI,A549 NSCLC,> 100 µM
same,TGI,ACHN renal,> 100 µM
same,TGI,BT-549 breast,> 100 µM
same,TGI,CAKI-1 renal,> 100 µM
same,TGI,CCRF-CEM leukemia,91.3 µM
same,TGI,COLO 205 colon,> 100 µM
same,TGI,DU-145 prostate,> 100 µM
same,TGI,HCC-2998 colon,> 100 µM
same,TGI,HCT-116 colon,> 100 µM
same,TGI,HCT-15 colon,> 100 µM
same,TGI,HL-60(TB) leukemia,> 100 µM
same,TGI,HOP-62 NSCLC,> 100 µM
same,TGI,HOP-92 NSCLC,66.4 µM
same,TGI,HS 578T breast,> 100 µM
same,TGI,HT29 colon,> 100 µM
same,TGI,IGROV1 ovarian,> 100 µM
same,TGI,K-562 leukemia,56.4 µM
same,TGI,KM12 colon,> 100 µM
same,TGI,LOX IMVI melanoma,> 100 µM
same,TGI,M14 melanoma,62.1 µM
same,TGI,MALME-3M melanoma,> 100 µM
same,TGI,MCF7 breast,> 100 µM
same,TGI,MDA-MB-231 breast,> 100 µM
same,TGI,MDA-MB-435,> 100 µM
same,TGI,MDA-N,> 100 µM
same,TGI,MOLT-4 leukemia,> 100 µM
same,TGI,NCI-H23 lung,> 100 µM
same,TGI,NCI-H460 lung,> 100 µM
same,TGI,NCI/ADR-RES ovarian,> 100 µM
same,TGI,OVCAR-3 ovarian,> 100 µM
same,TGI,OVCAR-4 ovarian,> 100 µM
same,TGI,OVCAR-5 ovarian,> 100 µM
same,TGI,PC-3 prostate,> 100 µM
same,TGI,RPMI-8226 leukemia,> 100 µM
same,TGI,RXF 393 renal,> 100 µM
same,TGI,SF-268 CNS,> 100 µM
same,TGI,SF-295 CNS,60.5 µM
same,TGI,SF-539 CNS,47.2 µM
same,TGI,SK-MEL-2 melanoma,> 100 µM
same,TGI,SK-MEL-28 melanoma,> 100 µM
same,TGI,SK-OV-3 ovarian,> 100 µM
same,TGI,SN12C renal,> 100 µM
same,TGI,SNB-19 CNS,> 100 µM
same,TGI,SNB-75 CNS,> 100 µM
same,TGI,SR leukemia,> 100 µM
same,TGI,SW-620 colon,> 100 µM
same,TGI,T-47D breast,> 100 µM
same,TGI,TK-10 renal,> 100 µM
same,TGI,U251 CNS,46.6 µM
same,TGI,UACC-257 melanoma,> 100 µM
same,TGI,UACC-62 melanoma,> 100 µM
same,TGI,UO-31 renal,> 100 µM
COC(=O)/C=C(\S/C(=C(/c1ccccc1)n1cc(C(=O)OC)c(C(=O)OC)n1)c1ccccc1)C(=O)OC,TGI,786-0 renal,> 100 µM
same,TGI,A498 renal,> 100 µM
same,TGI,A549 NSCLC,62.6 µM
same,TGI,ACHN renal,10.6 µM
same,TGI,BT-549 breast,98.7 µM
same,TGI,CAKI-1 renal,6.66 µM
same,TGI,CCRF-CEM leukemia,31.3 µM
same,TGI,COLO 205 colon,4.09 µM
same,TGI,DU-145 prostate,29.1 µM
same,TGI,EKVX NSCLC,32.1 µM
same,TGI,HCT-116 colon,37.1 µM
same,TGI,HCT-15 colon,29 µM
same,TGI,HL-60(TB) leukemia,12.6 µM
same,TGI,HOP-62 NSCLC,31 µM
same,TGI,HS 578T breast,96.3 µM
same,TGI,HT29 colon,18.6 µM
same,TGI,IGROV1 ovarian,31.9 µM
same,TGI,K-562 leukemia,31.8 µM
same,TGI,KM12 colon,> 100 µM
same,TGI,LOX IMVI melanoma,21.4 µM
same,TGI,M14 melanoma,29.8 µM
same,TGI,MALME-3M melanoma,31.9 µM
same,TGI,MCF7 breast,22.9 µM
same,TGI,MDA-MB-231 breast,44.6 µM
same,TGI,MDA-MB-435,32.9 µM
same,TGI,MDA-N,37.9 µM
same,TGI,MOLT-4 leukemia,12.4 µM
same,TGI,NCI-H226 lung,> 100 µM
same,TGI,NCI-H23 lung,38 µM
same,TGI,NCI-H460 lung,> 100 µM
same,TGI,NCI/ADR-RES ovarian,89.1 µM
same,TGI,OVCAR-3 ovarian,8.29 µM
same,TGI,OVCAR-4 ovarian,29 µM
same,TGI,OVCAR-5 ovarian,32.7 µM
same,TGI,OVCAR-8 ovarian,3.88 µM
same,TGI,PC-3 prostate,32.2 µM
same,TGI,RPMI-8226 leukemia,26.9 µM
same,TGI,RXF 393 renal,31.4 µM
same,TGI,SF-268 CNS,32.8 µM
same,TGI,SF-295 CNS,> 100 µM
same,TGI,SF-539 CNS,32.4 µM
same,TGI,SK-MEL-2 melanoma,35.8 µM
same,TGI,SK-MEL-28 melanoma,60.4 µM
same,TGI,SK-MEL-5 melanoma,44.5 µM
same,TGI,SK-OV-3 ovarian,> 100 µM
same,TGI,SN12C renal,40.9 µM
same,TGI,SNB-19 CNS,40 µM
same,TGI,SNB-75 CNS,95.2 µM
same,TGI,SR leukemia,32.6 µM
same,TGI,SW-620 colon,16.9 µM
same,TGI,T-47D breast,14.1 µM
same,TGI,TK-10 renal,9.22 µM
same,TGI,U251 CNS,66.1 µM
same,TGI,UACC-257 melanoma,23.9 µM
same,TGI,UACC-62 melanoma,94 µM
same,TGI,UO-31 renal,5.25 µM
